We go through 13 molecules from patent US8871753B2, “Macrocyclic compounds and their use as kinase inhibitors” (Incyte Corporation, priority 2008, dated 2014).

What all share (assay type): biochemical
Assay [1] concerns the target T1, human JAK2 (a.a. 828-1132) (Homo sapiens, UniProt O60674).
T1 construct: JAK2 (a.a. 828-1132); His tag (N); made in house; host or cells: insect cells (baculovirus)
Kind of assay: In vitro JAK kinase assay (HTRF, phosphorylation of a biotinylated peptide), JAK2. The settings on record: Table D1. In a few lines:
(§1)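 Kinase activity was measured as phosphorylation of a biotinylated peptide, with ATP at 90 μM for JAK1, 30 μM for JAK2 and 3 μM for JAK3. Reactions ran 1 hr at room temperature, were stopped with EDTA plus SA-APC and Eu-Py20, and were read by HTRF after 40 minutes of antibody binding.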
On the technique in general: TR-FRET usually uses a lanthanide donor and a delayed reading to cut background.

The target in a further assay is TYK2 (Homo sapiens, UniProt P29597). In words: TYK2 kinase inhibition (Table A1). The settings on record: Table D1.
Chain of TYK2 (P29597 whole entry): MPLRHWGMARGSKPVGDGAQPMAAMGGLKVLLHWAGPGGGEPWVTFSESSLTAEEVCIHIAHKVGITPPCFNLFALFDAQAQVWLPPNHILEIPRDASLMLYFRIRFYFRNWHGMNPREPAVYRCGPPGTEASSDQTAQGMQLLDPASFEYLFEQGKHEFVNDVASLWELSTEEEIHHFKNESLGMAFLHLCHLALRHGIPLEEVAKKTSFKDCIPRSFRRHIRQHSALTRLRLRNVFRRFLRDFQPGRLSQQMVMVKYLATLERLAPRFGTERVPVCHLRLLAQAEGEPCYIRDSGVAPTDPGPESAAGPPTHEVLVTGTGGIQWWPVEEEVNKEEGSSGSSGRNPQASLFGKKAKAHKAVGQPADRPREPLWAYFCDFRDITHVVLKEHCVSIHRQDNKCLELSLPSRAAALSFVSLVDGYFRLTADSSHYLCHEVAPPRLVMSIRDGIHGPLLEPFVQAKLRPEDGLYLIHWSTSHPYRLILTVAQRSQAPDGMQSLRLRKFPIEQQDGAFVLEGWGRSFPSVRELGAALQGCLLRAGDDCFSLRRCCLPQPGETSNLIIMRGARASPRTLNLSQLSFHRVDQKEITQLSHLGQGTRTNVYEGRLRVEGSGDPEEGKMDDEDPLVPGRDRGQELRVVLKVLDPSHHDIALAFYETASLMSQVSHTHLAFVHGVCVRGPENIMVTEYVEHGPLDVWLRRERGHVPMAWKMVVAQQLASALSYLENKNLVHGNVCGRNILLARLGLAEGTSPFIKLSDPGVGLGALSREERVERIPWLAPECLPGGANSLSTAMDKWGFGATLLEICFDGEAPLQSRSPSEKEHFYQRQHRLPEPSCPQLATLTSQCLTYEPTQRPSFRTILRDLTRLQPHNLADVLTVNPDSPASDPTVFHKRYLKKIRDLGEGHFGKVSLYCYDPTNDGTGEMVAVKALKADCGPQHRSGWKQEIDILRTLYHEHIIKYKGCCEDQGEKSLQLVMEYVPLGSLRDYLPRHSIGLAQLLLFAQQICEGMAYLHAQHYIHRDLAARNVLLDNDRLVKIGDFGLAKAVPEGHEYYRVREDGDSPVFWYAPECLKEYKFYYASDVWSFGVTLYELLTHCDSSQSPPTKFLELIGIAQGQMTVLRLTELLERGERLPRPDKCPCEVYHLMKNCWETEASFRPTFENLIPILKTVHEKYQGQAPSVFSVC
In assay [2] the target is T2, human JAK3 (a.a. 781-1124) (Homo sapiens, UniProt P52333).
T2 construct: JAK3 (a.a. 781-1124); His tag (N); made in house; host or cells: insect cells (baculovirus)
T2 sequence (P52333 781-1124): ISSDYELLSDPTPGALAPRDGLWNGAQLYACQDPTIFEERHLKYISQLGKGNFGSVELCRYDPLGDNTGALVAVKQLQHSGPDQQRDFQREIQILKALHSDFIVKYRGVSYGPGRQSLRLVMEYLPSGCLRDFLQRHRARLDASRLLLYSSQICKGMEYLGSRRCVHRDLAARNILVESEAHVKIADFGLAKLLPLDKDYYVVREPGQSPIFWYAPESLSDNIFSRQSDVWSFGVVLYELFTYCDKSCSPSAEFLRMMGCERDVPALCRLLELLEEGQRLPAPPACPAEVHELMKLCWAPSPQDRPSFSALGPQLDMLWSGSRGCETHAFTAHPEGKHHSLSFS
Kind of assay: In vitro JAK kinase assay (HTRF, phosphorylation of a biotinylated peptide), JAK3. The settings on record: Table D1. An outline of the steps: as §1

In assay [3] the target is T3, human JAK1 (a.a. 837-1142) (Homo sapiens, UniProt P23458).
T3 construct: human JAK1 (a.a. 837-1142); His tag (N); made in house; host or cells: insect cells (baculovirus)
T3 sequence (P23458 849-1154): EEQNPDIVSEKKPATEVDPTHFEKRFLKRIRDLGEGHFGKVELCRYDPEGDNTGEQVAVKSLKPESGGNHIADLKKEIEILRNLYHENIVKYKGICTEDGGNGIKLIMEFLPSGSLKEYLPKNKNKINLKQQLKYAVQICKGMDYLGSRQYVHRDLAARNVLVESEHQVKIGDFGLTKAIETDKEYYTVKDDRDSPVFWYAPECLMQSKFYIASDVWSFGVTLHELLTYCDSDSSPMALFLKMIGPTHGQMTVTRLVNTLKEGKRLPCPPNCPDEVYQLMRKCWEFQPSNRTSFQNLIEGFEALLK
Kind of assay: In vitro JAK kinase assay (HTRF, phosphorylation of a biotinylated peptide), JAK1. The settings on record: Table D1; read-out: JAK1 IC50. In a few lines: as §1

Structures can show the parent of a compound that is named as a salt.

T1 sequence (O60674 828-1132): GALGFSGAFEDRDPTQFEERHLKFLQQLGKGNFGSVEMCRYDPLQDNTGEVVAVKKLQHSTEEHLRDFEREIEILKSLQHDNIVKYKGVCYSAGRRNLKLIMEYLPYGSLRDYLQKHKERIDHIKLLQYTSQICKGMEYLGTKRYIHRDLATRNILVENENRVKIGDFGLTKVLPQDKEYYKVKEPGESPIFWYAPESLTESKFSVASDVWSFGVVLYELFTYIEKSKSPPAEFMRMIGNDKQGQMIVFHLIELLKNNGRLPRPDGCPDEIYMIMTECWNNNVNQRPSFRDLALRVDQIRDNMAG

The IC50 is the midpoint of a concentration-inhibition curve. Regarding `Cc1cc(C(=O)N2CCC[C@@H](CC(=O)Nc3ccc4cc3CCc3cncc(c3)Nc3ncc(Cl)c(n3)N4)C2)no1` [Example D208, N-[6-Chloro-2,4,8,18,22-pentaazatetracyclo[14.3.1.1(3,7).1(9,13)]docosa-1(20),3(22),4,6,9(21),10,12,16,18-nonaen-12-yl]-2-{(3S)-1-[(5-methylisoxazol-3-yl)carbonyl]piperidin-3-yl}acetamide bis(trifluoroacetate)], the IC50 in assay [1] worked out at 0.015 µM; against TYK2, 0.082 µM; in assay [2] it was 0.064 µM; in assay [3], 0.018 µM.
As to `O=C(OCc1ccccc1)N1CCC(CCNc2ccc3cc2CCc2cncc(c2)Nc2ncc(Cl)c(n2)N3)CC1` [Example D215, Benzyl 4-(2-{[6-chloro-2,4,8,18,22-pentaazatetracyclo[14.3.1.1(3,7).1(9,13)]docosa-1(20),3(22),4,6,9(21),10,12,16,18-nonaen-12-yl]amino}ethyl)piperidine-1-carboxylate], the IC50 in assay [1] was 0.044 µM; against TYK2, 0.276 µM; in assay [2], over 0.4 µM; in assay [3], 0.013 µM.
For `Clc1cnc2nc1Nc1ccc(NCCC3CCNCC3)c(c1)CCc1cncc(c1)N2` [Example D216, 6-Chloro-N-(2-piperidin-4-ylethyl)-2,4,8,18,22-pentaazatetracyclo[14.3.1.1(3,7).1(9,13)]docosa-1(20),3(22),4,6,9(21),10,12,16,18-nonaen-12-amine tetrakis(trifluoroacetate)], the IC50 was 0.276 µM in assay [1], 0.3 µM against TYK2, over 0.4 µM in assay [2] and 0.023 µM in assay [3].
Take `Cc1cc(C(=O)N2CCC(CCNc3ccc4cc3CCc3cncc(c3)Nc3ncc(Cl)c(n3)N4)CC2)no1` [Example D218, 6-Chloro-N-(2-{1-[(5-methylisoxazol-3-yl)carbonyl]piperidin-4-yl}ethyl)-2,4,8,18,22-pentaazatetracyclo[14.3.1.1(3,7).1(9,13)]docosa-1(20),3(22),4,6,9(21),10,12,16,18-nonaen-12-amine tris(trifluoroacetate)]: the IC50 is 0.064 µM in assay [1], 0.046 µM at TYK2, over 0.4 µM in assay [2] and 0.013 µM in assay [3].
For `CC(=O)N1CCC(CCNc2ccc3cc2CCc2cncc(c2)Nc2ncc(Cl)c(n2)N3)CC1` [Example D219, N-[2-(1-Acetylpiperidin-4-yl)ethyl]-6-chloro-2,4,8,18,22-pentaazatetracyclo[14.3.1.1(3,7).1(9,13)]docosa-1(20),3(22),4,6,9(21),10,12,16,18-nonaen-12-amine tris(trifluoroacetate)], the IC50 was 0.049 µM in assay [1], 0.038 µM on TYK2, over 0.4 µM in assay [2] and 0.014 µM in assay [3].
As for `O=C(c1ccc(F)cc1F)N1CCC(CCNc2ccc3cc2CCc2cncc(c2)Nc2ncc(Cl)c(n2)N3)CC1` [Example D220, 6-Chloro-N-{2-[1-(2,4-difluorobenzoyl)piperidin-4-yl]ethyl}-2,4,8,18,22-pentaazatetracyclo[14.3.1.1(3,7).1(9,13)]docosa-1(20),3(22),4,6,9(21),10,12,16,18-nonaen-12-amine tris(trifluoroacetate)], the IC50 in assay [1] is 0.04 µM; on TYK2, 0.038 µM; in assay [2] it was over 0.4 µM; in assay [3], 0.014 µM.
Consider `O=S(=O)(c1ccccc1F)N1CCC(CCNc2ccc3cc2CCc2cncc(c2)Nc2ncc(Cl)c(n2)N3)CC1` [Example D221, 6-Chloro-N-(2-{1-[(2-fluorophenyl)sulfonyl]piperidin-4-yl}ethyl)-2,4,8,18,22-pentaazatetracyclo[14.3.1.1(3,7).1(9,13)]docosa-1(20),3(22),4,6,9(21),10,12,16,18-nonaen-12-amine tris(trifluoroacetate)], for which the IC50 in assay [1] is 0.07 µM; against TYK2, 0.059 µM; in assay [2], over 0.4 µM; in assay [3], 0.02 µM.
For `N#Cc1ccccc1S(=O)(=O)N1CCC(CCNc2ccc3cc2CCc2cncc(c2)Nc2ncc(Cl)c(n2)N3)CC1` [Example D222, 2-{[4-(2-{[6-Chloro-2,4,8,18,22-pentaazatetracyclo[14.3.1.1(3,7).1(9,13)]docosa-1(20),3(22),4,6,9(21),10,12,16,18-nonaen-12-yl]amino}ethyl)piperidin-1-yl]sulfonyl}benzonitrile tris(trifluoroacetate)], the IC50 in assay [1] was 0.111 µM; against TYK2, 0.09 µM; in assay [2] it was over 0.4 µM; in assay [3], 0.021 µM.
Turning to `CN1c2cccc(c2)CCc2cccc(c2)Nc2nccc1n2` [Example D223, 8-Methyl-2,4,8,22-tetraazatetracyclo[14.3.1.1(3,7).1(9,13)]docosa-1(20),3(22),4,6,9(21),10,12,16,18-nonaene trifluoroacetate], the IC50 in assay [1] was 0.106 µM; against TYK2, over 0.4 µM; in assay [2], over 0.4 µM; in assay [3], over 0.4 µM.
On to `CN1c2cccc(c2)CCc2cncc(c2)Nc2nccc1n2` [Example D224, 8-Methyl-2,4,8,18,22-pentaazatetracyclo[14.3.1.1(3,7).1(9,13)]docosa-1(20),3(22),4,6,9(21),10,12,16,18-nonaene bis(trifluoroacetate)], for which the IC50 in assay [1] is 0.126 µM; on TYK2, over 0.4 µM; in assay [2] it was over 0.4 µM; in assay [3] it was 0.3 µM.
Turning to `Clc1cnc2nc1Nc1ccc(OCC3CCNCC3)c(c1)CCc1cncc(c1)N2` [Example D225, 6-Chloro-12-(piperidin-4-ylmethoxy)-2,4,8,18,22-pentaazatetracyclo[14.3.1.1(3,7).1(9,13)]docosa-1(20),3(22),4,6,9(21),10,12,16,18-nonaene tris(trifluoroacetate)], the 50% inhibitory concentration (IC50) is over 0.4 µM in assay [1], over 0.4 µM at TYK2, over 0.4 µM in assay [2] and 0.18 µM in assay [3].
Turning to `Cc1cc(C(=O)N2CCC(COc3ccc4cc3CCc3cncc(c3)Nc3ncc(Cl)c(n3)N4)CC2)no1` [Example D226, 6-Chloro-12-({1-[(5-methylisoxazol-3-yl)carbonyl]piperidin-4-yl}methoxy)-2,4,8,18,22-pentaazatetracyclo[14.3.1.1(3,7).1(9,13)]docosa-1(20),3(22),4,6,9(21),10,12,16,18-nonaene bis(trifluoroacetate)], the IC50 in assay [1] was over 0.4 µM; at TYK2, over 0.4 µM; in assay [2] it was over 0.4 µM; in assay [3] it was 0.255 µM.
Turning to `CC(=O)N1CCC(COc2ccc3cc2CCc2cncc(c2)Nc2ncc(Cl)c(n2)N3)CC1` [Example D227, 12-[(1-Acetylpiperidin-4-yl)methoxy]-6-chloro-2,4,8,18,22-pentaazatetracyclo[14.3.1.1(3,7).1(9,13)]docosa-1(20),3(22),4,6,9(21),10,12,16,18-nonaene bis(trifluoroacetate)], the IC50 is 0.148 µM in assay [1], over 0.4 µM against TYK2, over 0.4 µM in assay [2] and 0.072 µM in assay [3].
